Experimental data published in patent US6645715B1, “Artificial cornea” (University of Ottawa, priority 1998, dated 2003).

Key:
[1] = tested on: reconstructed corneas; experiment: Live-dead staining of reconstructed corneas after chemical exposure; assay type: cell-based, human; settings: SDS; 0.01% benzalkonium chloride solution
From the text: Live cells are green, while dying or dead cells are orange-red. […] C.

[2] = tested on: reconstructed corneas; experiment: Responses of reconstructed corneas to aqueous test chemicals (wound, corneal transparency); assay type: cell-based, human; settings: 10% SDS, 0.01% benzalkonium chloride solution
Method: Each cornea was exposed centrally to 100 μl of the test chemical for 10 min, after which the chemical was washed off with saline and the corneas were re-cultured for a further 3 days. The saline-treated cornea served as the control.

[3] = tested on: corneal epithelial cell lines and primary epithelial cells; experiment: RT-PCR of mRNA expression in corneal epithelial cells after SDS exposure; assay type: cell-based, human
From the text: Corneal epithelial cell lines were exposed to sodium dodecyl sulfate (SDS) to characterise the changes in mRNA expression of early response genes such as c-fos and c-jun, cytokines probably involved with corneal wound healing such as interleukins (IL-1a and IL-6), basic fibroblast growth factor (bFGF), vascular endothelial growth factor (VEGF) and epidermal growth factor (EGF), and matrix molecules that are elaborated during healing such as collagens types I, III and V. Reverse transcription-polymerase chain reaction (RT-PCR) was used to examine changes in expression of the above genes in corneal epithelial cell lines compared to primary cells, and in artificial corneas compared to human corneas from the eye bank after exposure to a detergent SDS. The cells were exposed to 0.02% SDS in M199 for 2 minutes. Corneas were treated with 5% SDS in M199. Controls were dosed with M199 only. RT-PCR was performed on RNA from cells and corneas obtained at different time points after injury. Semi-quantitative analyses were conducted by introducing the housekeeping gene, glyceraldehyde-3-phosphate dehydrogenase (GAPDH) as an internal control and by Southern analysis. PCR products were sequenced to confirm their identity. Baseline levels of the 10 mRNAs examined were established in control epithelial cells and corneas (n> or =6 for each time point). […] However, changes in MRNA expression for bFGF, VEGF, EGF and collagen III were non-significant.

[4] = tested on: reconstructed corneas; experiment: RT-PCR of gene expression in SDS-treated reconstructed corneas; assay type: cell-based, human; settings: 5% SDS in M199; reconstructed whole corneas
Method: Band intensities for the indicated genes were quantitated by a phosphoimager and were divided by the intensity of the corresponding GAPDH band. Corneas were treated with 5% SDS in medium for 1 or 3 minutes, then washed twice with medium. Total RNA was extracted at 1 hour after the SDS treatment, and RT-PCR was carried out for specific primers for various genes. Reverse transcription-polymerase chain reaction (RT-PCR) was used to examine changes in expression of the above genes in corneal epithelial cell lines compared to primary cells, and in artificial corneas compared to human corneas from the eye bank after exposure to a detergent SDS. The cells were exposed to 0.02% SDS in M199 for 2 minutes. Corneas were treated with 5% SDS in M199. Controls were dosed with M199 only. RT-PCR was performed on RNA from cells and corneas obtained at different time points after injury. Semi-quantitative analyses were conducted by introducing the housekeeping gene, glyceraldehyde-3-phosphate dehydrogenase (GAPDH) as an internal control and by Southern analysis. PCR products were sequenced to confirm their identity. […] However, these changes were more marked in the reconstructed whole corneas than in the epithelial monolayers.

[5] = tested on: human eye bank corneas; experiment: RT-PCR of gene expression in human eye bank corneas after SDS exposure; assay type: cell-based; settings: 5% SDS in M199
Method: Reverse transcription-polymerase chain reaction (RT-PCR) was used to examine changes in expression of the above genes in corneal epithelial cell lines compared to primary cells, and in artificial corneas compared to human corneas from the eye bank after exposure to a detergent SDS. The cells were exposed to 0.02% SDS in M199 for 2 minutes. Corneas were treated with 5% SDS in M199. Controls were dosed with M199 only. RT-PCR was performed on RNA from cells and corneas obtained at different time points after injury. Semi-quantitative analyses were conducted by introducing the housekeeping gene, glyceraldehyde-3-phosphate dehydrogenase (GAPDH) as an internal control and by Southern analysis. PCR products were sequenced to confirm their identity.

[6] = 0.02% SDS in M199 for 2 minutes, within 1 hour of injury, primary epithelial cells and cell lines

CCCCCCCCCCCCOS(=O)(=O)[O-].[Na+] [SDS, sodium dodecyl sulfate]
live-dead staining, epithelial cells [1]: mostly dead and dying cells
live-dead staining, stromal cells [1]: orange-red dead or dying cells
penetration into the stromal compartment [1]: penetration of the detergent into the stroma
wound / change of corneal transparency ([2]; 100 μl centrally for 10 min, washed off with saline, re-cultured 3 days): caused wounds to the centre of the cornea
healing of the wound ([2]; 100 μl for 10 min, re-cultured a further 3 days): still unhealed
IL-1a mRNA expression ([3]; 0.02% SDS for 2 minutes): increased expression
IL-6 mRNA expression ([3]; 0.02% SDS for 2 minutes): increased expression
changes in mRNA expression for EGF ([3]; 0.02% SDS for 2 minutes): non-significant
changes in mRNA expression for VEGF ([3]; 0.02% SDS for 2 minutes): non-significant
changes in mRNA expression for bFGF ([3]; 0.02% SDS for 2 minutes): non-significant
changes in mRNA expression for collagen III ([3]; 0.02% SDS for 2 minutes): non-significant
collagen I mRNA expression ([3]; 0.02% SDS for 2 minutes): increased expression
collagen V mRNA expression ([3]; 0.02% SDS for 2 minutes): increased expression
expression of c-fos, time course ([3]; 0.02% SDS for 2 minutes, 24 hours): returned to baseline levels by the end of 24 hours
expression of c-jun, time course ([3]; 0.02% SDS for 2 minutes, until day 6): remained high until day 6 after injury
expression of c-fos [3, 6]: significantly increased
expression of c-jun [3, 6]: significantly increased
extent of changes in gene expression versus epithelial monolayers [4]: more marked
changes in gene expression [5]: responded to SDS exposure with changes in gene expression
